Experimental data taken from ChEMBL document CHEMBL1201862, “PubChem BioAssay data set” (2004).
Activity calls are given as the source filed them.

How the values were obtained:
Beta-galactosidase = Beta-galactosidase (Escherichia coli, UniProt Q8VNN2); assay: Dose response counterscreen for EBI2 assay utilizing the enzyme, b-galactosidase.; type: functional
Fatty acid synthase [1] = target: T1, Fatty acid synthase (Homo sapiens, UniProt P49327); assay: inhibition of human FAS-TE enzyme activity – biochemical, endpoint fluorescence intensity, uHTS hits, dose response (AID 624327); type: functional;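 note: fluorescence from hydrolysis of an O-methyl fluorescein acyl ester substrate by the enzyme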
T1 sequence (P49327 whole entry): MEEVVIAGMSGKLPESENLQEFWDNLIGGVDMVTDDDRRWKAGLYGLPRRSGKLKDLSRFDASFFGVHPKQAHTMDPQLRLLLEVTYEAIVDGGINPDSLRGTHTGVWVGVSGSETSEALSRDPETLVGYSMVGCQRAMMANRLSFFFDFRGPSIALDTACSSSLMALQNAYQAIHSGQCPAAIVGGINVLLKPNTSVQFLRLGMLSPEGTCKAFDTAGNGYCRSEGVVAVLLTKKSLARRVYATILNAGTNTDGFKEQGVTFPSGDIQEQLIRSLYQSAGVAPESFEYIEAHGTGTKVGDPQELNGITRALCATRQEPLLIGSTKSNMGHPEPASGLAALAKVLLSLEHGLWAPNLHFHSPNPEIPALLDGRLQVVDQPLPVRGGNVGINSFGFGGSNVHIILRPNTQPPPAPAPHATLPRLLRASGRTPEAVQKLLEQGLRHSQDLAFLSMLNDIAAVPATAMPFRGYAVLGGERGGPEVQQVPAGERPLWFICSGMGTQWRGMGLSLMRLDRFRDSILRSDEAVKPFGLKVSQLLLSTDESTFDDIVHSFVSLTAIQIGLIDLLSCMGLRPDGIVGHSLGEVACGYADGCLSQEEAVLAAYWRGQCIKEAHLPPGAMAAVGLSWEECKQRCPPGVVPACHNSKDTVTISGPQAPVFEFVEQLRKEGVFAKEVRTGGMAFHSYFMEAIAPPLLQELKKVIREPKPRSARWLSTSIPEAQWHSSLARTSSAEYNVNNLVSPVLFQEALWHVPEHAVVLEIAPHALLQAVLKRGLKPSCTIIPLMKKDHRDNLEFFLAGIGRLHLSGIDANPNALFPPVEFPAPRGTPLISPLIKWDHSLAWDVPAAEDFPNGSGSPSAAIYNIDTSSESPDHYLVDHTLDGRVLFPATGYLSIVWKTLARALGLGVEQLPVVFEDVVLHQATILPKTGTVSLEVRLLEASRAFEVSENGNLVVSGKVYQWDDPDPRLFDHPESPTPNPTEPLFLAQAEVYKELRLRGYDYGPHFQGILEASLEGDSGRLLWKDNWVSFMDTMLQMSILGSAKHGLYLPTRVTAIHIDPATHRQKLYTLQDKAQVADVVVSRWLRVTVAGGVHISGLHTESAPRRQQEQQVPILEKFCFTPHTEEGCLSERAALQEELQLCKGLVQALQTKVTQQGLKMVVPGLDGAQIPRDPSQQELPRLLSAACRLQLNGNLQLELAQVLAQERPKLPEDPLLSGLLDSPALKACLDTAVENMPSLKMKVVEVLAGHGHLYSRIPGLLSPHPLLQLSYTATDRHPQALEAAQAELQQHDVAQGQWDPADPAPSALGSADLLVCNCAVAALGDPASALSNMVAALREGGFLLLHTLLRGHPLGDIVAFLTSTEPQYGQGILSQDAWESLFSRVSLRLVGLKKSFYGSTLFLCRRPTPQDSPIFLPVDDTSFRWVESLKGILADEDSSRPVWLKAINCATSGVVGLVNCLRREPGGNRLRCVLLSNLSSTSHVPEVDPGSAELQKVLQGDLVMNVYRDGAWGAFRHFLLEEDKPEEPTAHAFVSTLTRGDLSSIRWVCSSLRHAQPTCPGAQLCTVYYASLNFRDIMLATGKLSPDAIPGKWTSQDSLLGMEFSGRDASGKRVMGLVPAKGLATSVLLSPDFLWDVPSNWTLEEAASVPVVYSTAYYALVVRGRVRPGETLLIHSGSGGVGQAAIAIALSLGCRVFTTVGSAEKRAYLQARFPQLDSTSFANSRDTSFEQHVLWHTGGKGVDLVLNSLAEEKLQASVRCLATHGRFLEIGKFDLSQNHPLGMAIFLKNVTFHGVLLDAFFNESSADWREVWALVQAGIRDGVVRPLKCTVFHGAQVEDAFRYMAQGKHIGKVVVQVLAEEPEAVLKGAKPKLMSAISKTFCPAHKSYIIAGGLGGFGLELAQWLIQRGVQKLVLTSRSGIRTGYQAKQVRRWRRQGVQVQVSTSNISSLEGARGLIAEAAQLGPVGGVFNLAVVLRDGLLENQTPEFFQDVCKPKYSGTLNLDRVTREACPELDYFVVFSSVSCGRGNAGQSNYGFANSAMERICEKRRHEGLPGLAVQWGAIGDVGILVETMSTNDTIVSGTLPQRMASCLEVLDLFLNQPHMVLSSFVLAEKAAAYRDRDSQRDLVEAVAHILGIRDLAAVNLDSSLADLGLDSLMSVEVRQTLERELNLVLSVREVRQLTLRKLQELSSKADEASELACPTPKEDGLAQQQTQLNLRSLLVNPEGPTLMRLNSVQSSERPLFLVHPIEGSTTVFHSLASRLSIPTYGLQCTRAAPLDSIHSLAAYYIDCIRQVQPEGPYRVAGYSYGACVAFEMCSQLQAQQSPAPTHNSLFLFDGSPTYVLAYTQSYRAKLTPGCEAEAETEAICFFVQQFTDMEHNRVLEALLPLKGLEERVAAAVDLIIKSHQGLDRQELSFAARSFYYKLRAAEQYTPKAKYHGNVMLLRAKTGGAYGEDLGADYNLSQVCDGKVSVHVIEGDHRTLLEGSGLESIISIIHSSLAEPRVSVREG

Fatty acid synthase [2] = target: T1, Fatty acid synthase; assay: inhibition of human FAS-TE enzyme activity – biochemical, kinetic fluorescence intensity, dose response (AID 624326); type: functional;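 note: rate of fluorescence rise from hydrolysis of a fluorogenic O-methyl fluorescein ester substrate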
[3] = target: Matrix metalloproteinase-14 (Homo sapiens, UniProt P50281); assay: Dose Response confirmation of uHTS hits for a small molecule inhibitors of MT1-MMP activation in a fluorescence assay set 1.; type: functional
Nonstructural protein 1 = Nonstructural protein 1 (Influenza A virus, UniProt Q194T2); type: functional, Influenza A virus (A/California/07/2009(H1N1))
[4] = general mammalian cell viability loss – inhibitor set, cherry-pick, set 2, cytotoxicity control for miR-122 modulator project, dose response (AID 720697); type: functional, cell-based
[5] = target: Peroxisome proliferator-activated receptor gamma/Nuclear receptor corepressor 2 (Homo sapiens, UniProt P37231+Q9Y618); assay: Counterscreen for NR2E3 inverse agonists: TR-FRET-based biochemical high throughput dose response assay to identify inverse agonists of the interaction between peroxisome proliferator-activated receptor gamma (PPARg) and nuclear receptor co-repressor 2 (NCOR2).; type: functional
[6] = HGIII-sPLA2 enzyme inhibition potency – biochemical, QFRET, IC50, dose response (AID 743457);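 note: green fluorescence rise as the enzyme cleaves BODIPY PC-A2 in liposomes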
[7] = target: Photoreceptor-specific nuclear receptor (Homo sapiens, UniProt Q9Y5X4); assay: ligands suppressing NR2E3 nuclear receptor activity – biochemical, TR-FRET, dose response (AID 463256); type: functional
[8] = inhibition of ARNT PAS-B/TACC3 complex formation – biochemical, AlphaScreen, cherry-picked samples, confirmation (AID 651703); type: functional, Homo sapiens;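 note: His-tagged ARNT PAS-B domain paired with GST-TACC3 E629A dimer coactivator fragment; potency of inhibitors that break up the complex and lower AlphaScreen signal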
[9] = NIH3T3 cell viability loss – ATP luminescence, mouse fibroblasts, counter-screen, dose response (AID 2010); type: functional, cell-based;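 note: cells exposed to compound for about 90 hours before reading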
[10] = Trypanosoma cruzi growth suppression in host cells – NIH3T3 host cells, beta-gal luminescence, confirmation (AID 2044); type: functional, cell-based;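 note: intracellular parasites grown in NIH/3T3 mouse fibroblasts as host cells; luminescent beta-galactosidase reporter signal from transgenic T. cruzi replicating inside host cells; inhibitors lower the luminescence signal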
[11] = target: Arf-GAP with SH3 domain, ANK repeat and PH domain-containing protein 1 (Homo sapiens, UniProt Q9ULH1); type: functional;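 note: biochemical fluorescence polarization dose–response screen measuring inhibition of ASAP1; ASAP1 GAP domain stimulating GTP hydrolysis by truncated human ARF1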
[12] = target: Hepatocyte nuclear factor 4-alpha (Homo sapiens, UniProt P41235); type: functional, cell-based;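 note: biochemical luminescence-based dose-response counterscreen measuring inhibition of HNF4 dimerization, run alongside a screen for blockers of ABHD5–perilipin-5 interaction; split luciferase complementation of HNF4 fusion proteins in cell lysate measuring dimerization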
ORF 73 = target: T2, ORF 73 (Human herpesvirus 8, UniProt O40947); assay: KSHV LANA DNA-binding disruption – biochemical, fluorescence polarization, cherry-picked samples, dose response (AID 504725); design: species or system Human gammaherpesvirus 8;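 note: fluorescence polarization of a labeled DNA duplex reporting LANA DNA binding; potency is for inhibitors that block LANA binding to the DNA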
T2 sequence (O40947 whole entry): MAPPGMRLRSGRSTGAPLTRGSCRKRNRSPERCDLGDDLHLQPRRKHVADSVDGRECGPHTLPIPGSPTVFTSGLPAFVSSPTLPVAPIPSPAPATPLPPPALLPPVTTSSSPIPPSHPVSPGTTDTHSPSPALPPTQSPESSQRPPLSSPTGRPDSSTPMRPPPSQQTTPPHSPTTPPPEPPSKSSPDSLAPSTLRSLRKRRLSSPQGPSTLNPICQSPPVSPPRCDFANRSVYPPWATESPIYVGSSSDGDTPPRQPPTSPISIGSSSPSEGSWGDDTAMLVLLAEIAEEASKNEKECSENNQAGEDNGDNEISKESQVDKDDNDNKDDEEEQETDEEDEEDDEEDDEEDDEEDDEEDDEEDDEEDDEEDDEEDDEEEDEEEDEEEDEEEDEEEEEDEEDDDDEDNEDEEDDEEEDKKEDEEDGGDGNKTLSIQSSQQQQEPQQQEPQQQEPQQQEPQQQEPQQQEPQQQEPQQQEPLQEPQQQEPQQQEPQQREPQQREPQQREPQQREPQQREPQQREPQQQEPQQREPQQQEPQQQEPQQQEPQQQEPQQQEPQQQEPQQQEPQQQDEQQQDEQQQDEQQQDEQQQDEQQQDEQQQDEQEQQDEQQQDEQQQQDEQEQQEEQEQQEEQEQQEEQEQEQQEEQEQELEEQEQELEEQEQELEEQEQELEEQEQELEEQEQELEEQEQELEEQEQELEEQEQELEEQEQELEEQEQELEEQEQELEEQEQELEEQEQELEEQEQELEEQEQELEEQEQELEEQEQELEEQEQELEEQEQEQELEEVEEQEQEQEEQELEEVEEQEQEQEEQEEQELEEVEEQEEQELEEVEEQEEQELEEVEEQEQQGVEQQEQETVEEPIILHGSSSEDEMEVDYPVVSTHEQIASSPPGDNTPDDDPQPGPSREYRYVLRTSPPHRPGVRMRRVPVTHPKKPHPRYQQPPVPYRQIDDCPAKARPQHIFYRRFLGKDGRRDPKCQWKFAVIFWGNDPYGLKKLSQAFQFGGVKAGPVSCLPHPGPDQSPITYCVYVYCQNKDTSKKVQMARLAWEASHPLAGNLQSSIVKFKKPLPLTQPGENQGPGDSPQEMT

Beta-lactamase [13] = target: Beta-lactamase (Salmonella choleraesuis (strain SC-B67), UniProt Q5J463)
Beta-lactamase [14] = target: Beta-lactamase (Pseudomonas aeruginosa, UniProt Q79MP6);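 note: biochemical dose-response test of metallo-beta-lactamase enzyme inhibition, read out by epi-absorbance; purified recombinant IMP-1 metallo-beta-lactamase with nitrocefin as substrate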
[15] = target: UDP-galactopyranose mutase (Mycobacterium tuberculosis, UniProt P9WIQ1); assay: Inhibitors of Mycobacterium tuberculosis UDP-galactopyranose mutase (UGM) enzyme Measured in Biochemical System Using Plate Reader - 2105-02_Inhibitor_Dose_CherryPick_Activity. [Related pubchem assays (depositor defined):AID504439]
Keap1/Nrf2 = Keap1/Nrf2 (Homo sapiens, UniProt Q14145); assay: disruptors of Keap1 binding to Nrf2 peptide – biochemical, fluorescence polarization, cherry-picked samples, dose response (AID 588683)
Chain of Keap1/Nrf2 (Q16236 whole entry): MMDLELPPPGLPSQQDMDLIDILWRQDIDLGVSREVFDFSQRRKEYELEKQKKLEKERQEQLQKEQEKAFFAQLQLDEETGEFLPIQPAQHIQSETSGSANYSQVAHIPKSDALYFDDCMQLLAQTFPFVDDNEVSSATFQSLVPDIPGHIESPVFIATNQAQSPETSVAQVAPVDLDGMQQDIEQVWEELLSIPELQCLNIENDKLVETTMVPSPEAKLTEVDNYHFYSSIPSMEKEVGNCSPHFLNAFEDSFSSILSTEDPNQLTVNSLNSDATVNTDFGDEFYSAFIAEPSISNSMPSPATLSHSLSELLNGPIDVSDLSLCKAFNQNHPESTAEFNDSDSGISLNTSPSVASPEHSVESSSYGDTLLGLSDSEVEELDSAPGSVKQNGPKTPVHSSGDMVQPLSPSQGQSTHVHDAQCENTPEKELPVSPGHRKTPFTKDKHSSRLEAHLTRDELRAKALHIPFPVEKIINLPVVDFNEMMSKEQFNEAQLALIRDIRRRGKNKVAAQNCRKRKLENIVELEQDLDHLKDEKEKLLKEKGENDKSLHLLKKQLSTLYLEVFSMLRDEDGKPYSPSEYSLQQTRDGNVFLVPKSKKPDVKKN
Chain of Keap1/Nrf2 (Q14145 whole entry): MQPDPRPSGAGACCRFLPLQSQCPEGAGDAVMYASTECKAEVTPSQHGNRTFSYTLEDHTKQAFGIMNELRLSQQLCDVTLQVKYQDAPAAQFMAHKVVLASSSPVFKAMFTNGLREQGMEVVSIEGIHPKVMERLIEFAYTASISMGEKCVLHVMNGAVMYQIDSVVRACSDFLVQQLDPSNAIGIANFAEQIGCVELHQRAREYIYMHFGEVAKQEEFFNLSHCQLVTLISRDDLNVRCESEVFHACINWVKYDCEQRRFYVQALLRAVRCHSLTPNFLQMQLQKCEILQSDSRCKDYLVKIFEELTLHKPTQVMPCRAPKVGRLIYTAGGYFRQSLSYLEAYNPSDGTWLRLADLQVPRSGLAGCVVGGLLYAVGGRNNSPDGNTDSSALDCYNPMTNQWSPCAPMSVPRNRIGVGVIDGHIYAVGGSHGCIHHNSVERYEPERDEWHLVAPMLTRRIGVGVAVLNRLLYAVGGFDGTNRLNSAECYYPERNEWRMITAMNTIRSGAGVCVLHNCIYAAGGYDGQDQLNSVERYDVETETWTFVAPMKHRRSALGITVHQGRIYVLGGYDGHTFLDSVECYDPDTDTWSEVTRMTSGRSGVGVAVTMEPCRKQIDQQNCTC

[16] = potency of ADAM10 substrate cleavage blockers – biochemical, QFRET, dose response (AID 743254);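 note: ADAM10 enzyme with the DM2 quenched FRET peptide as substrate; EDANS fluorescence gain as the protease cuts the substrate; inhibitor potency against ADAM10 proteolytic activity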
[17] = microbe, parasite or virus in culture; type: functional; conditions: Mycobacterium tuberculosis
[18] = target: Disintegrin and metalloproteinase domain-containing protein 17 (Homo sapiens, UniProt P78536); assay: inhibition of ADAM17 substrate cleavage – biochemical, quenched FRET substrate, counter-screen for ADAM10 exosite inhibitor project, dose response (AID 743253)
[19] = target: T3, Probable nicotinate-nucleotide adenylyltransferase (Staphylococcus aureus (strain N315), UniProt P65502); type: functional, Staphylococcus aureus subsp. aureus N315;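 for IC50 Mean: confirmatory dose-response retesting of NadD inhibitor hits first found in an ultra-high-throughput screen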
T3 sequence (P65502 whole entry): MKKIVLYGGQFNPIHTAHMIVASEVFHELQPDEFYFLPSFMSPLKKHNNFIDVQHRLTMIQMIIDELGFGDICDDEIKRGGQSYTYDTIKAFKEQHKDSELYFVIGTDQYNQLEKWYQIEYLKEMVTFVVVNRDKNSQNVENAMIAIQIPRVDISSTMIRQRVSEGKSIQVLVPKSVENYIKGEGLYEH

[20] = target: NAD-dependent protein deacylase sirtuin-5, mitochondrial (Homo sapiens, UniProt Q9NXA8); assay: sirtuin-5 deacylation blockers, concentration series – biochemical, fluorescence imaging, cherry-pick, set 5, dose response (AID 720591);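 note: desuccinylation of succinyl peptide AMC substrate read as fluorescence after trypsin release; potency of inhibitors that lower fluorescence and may act on trypsin instead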
[21] = target: T3, Probable nicotinate-nucleotide adenylyltransferase; type: functional, Staphylococcus aureus subsp. aureus N315; conditions: read-out: IC50_Mean
[22] = target: T4, Sentrin-specific protease 1 (Homo sapiens, UniProt Q9P0U3); assay: Dose response confirmation of small molecule inhibitors of the catalytic domain of the SUMO protease, SENP1 in a FRET assay.; type: functional; conditions: read-out: IC50_Mean
T4 sequence (Q9P0U3 whole entry, the tested form may be a part): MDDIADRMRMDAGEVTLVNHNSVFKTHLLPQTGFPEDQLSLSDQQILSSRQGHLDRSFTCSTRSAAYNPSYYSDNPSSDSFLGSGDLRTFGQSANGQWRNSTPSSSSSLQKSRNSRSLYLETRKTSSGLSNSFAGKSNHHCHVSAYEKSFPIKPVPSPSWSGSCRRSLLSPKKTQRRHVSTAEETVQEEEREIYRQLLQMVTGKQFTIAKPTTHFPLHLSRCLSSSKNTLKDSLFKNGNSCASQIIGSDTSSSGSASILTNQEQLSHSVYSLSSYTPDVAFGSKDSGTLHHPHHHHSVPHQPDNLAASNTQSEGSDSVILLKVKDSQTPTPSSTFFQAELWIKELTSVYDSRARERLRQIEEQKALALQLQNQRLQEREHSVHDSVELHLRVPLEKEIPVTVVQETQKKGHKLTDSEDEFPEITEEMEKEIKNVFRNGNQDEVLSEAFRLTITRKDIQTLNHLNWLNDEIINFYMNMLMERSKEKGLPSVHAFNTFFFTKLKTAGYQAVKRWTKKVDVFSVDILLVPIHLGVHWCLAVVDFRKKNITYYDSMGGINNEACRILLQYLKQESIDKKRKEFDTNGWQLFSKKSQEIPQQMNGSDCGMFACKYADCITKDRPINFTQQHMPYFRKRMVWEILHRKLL

[23] = target: T4, Sentrin-specific protease 1; assay: SENP1 catalytic domain blockers, concentration series – biochemical, kinetic FRET, dose response (AID 651697); type: functional; conditions: read-out: IC50_Mean
Vero = assay: viability loss in Vero cells – cell-based, plate reader, cherry-pick samples, cytotoxicity control, dose response (AID 687020); type: functional; conditions: Chlorocebus sabaeus
[24] = activation of miR-122 Renilla sensor silencing – cell-based, Huh7 psiCHECK-miR122, Renilla luciferase, cherry-picked, dose response (AID 651956); type: functional;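 note: huh7 hepatoma cells stably carrying a psiCHECK-2 miR-122 sensor plasmid; renilla luciferase signal reporting endogenous miR-122 activity after 48 h compound exposure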
HeLa = assay: viability loss in HeLa cells – cell-based, ATP luminescence, cherry-pick samples, cytotoxicity control, dose response (AID 687004); type: functional; conditions: Homo sapiens
[25] = Counterscreen for activators of the function of SWI/SNF related, matrix associated, actin dependent regulator of chromatin, subfamily a, member 2 (SMARCA2, BRM): Luminescence-based cell-based high throughput dose response assay to identify non-selective compounds using the VP16 reporter assay.; type: functional
[26] = target: SWI/SNF-related matrix-associated actin-dependent regulator of chromatin subfamily A member 2 (Homo sapiens, UniProt P51531); assay: Luminescence-based cell-based high throughput dose response assay to identify activators of the function of SWI/SNF related, matrix associated, actin dependent regulator of chromatin, subfamily a, member 2 (SMARCA2, BRM).; type: functional
Paired box protein Pax-8 = Paired box protein Pax-8 (Homo sapiens, UniProt Q06710); assay: PAX8 transcriptional activity inhibition in RMG-I – RMG-I cells, luciferase, cherry-pick, dose response (AID 687027); type: functional, cell-based;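 note: luciferase reporter driven by Pax8 target thyroperoxidase promoter measured by SteadyGlo luminescence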
[27] = general cell-killing toxicity readout – plate reader, dry powder samples, cytotoxicity control for PAX8 inhibitor project, dose response (AID 743021); type: functional, cell-based
[28] = IGROV1 cell killing – plate reader, dry powder samples, PAX8 inhibitor project, dose response (AID 743043); type: functional, cell-based; conditions: IGROV-1
[29] = OVCAR-3 cell viability loss – plate reader, dry powder samples, PAX8 inhibitor project, dose response (AID 743044); type: functional, cell-based
[30] = CMV-driven luciferase expression suppression in HEK293 – cell-based, luminescence, dry powder, counter-screen for Pax8 inhibitor project, dose response (AID 743020); type: functional
[31] = target: T5, Trace amine-associated receptor 1 (Homo sapiens, UniProt Q96RJ0); assay: Counterscreen for agonists of the human trace amine associated receptor 1 (hTAAR1): Fluorescence-based cell-based high throughput dose response assay to identify hTAAR1 agonist that also desensitize TAAR1 receptor response.; type: functional
T5 sequence (Q96RJ0 whole entry): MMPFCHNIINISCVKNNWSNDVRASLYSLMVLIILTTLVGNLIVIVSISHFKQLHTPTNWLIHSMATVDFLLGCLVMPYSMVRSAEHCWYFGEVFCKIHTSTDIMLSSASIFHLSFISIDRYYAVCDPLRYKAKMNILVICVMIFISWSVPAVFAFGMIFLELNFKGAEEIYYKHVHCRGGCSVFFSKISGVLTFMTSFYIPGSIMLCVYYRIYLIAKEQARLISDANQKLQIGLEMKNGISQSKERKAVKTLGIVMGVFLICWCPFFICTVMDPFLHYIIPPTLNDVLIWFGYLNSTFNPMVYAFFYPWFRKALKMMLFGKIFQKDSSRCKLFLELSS

[32] = target: T5, Trace amine-associated receptor 1; assay: Fluorescence-based cell-based high throughput dose response assay to identify agonists of the human trace amine associated receptor 1 (TAAR1).; type: functional
cells [33] = type: functional, cell-based
cells [34] = type: functional, cell-based; remark: listed apart in the source
A549 = assay: viability loss in A549 cells – cell-based, plate reader, cherry-pick samples, cytotoxicity control, dose response (AID 687028); type: functional; conditions: Homo sapiens
[35] = LMP1-induced NF-kB luciferase signal inhibition – cell-based, EBV LMP1, dry powder, set 2, dose response (AID 624361); type: functional
[36] = inhibitors of EBV LMP1 NF-kappaB signaling – cell-based, luciferase reporter, luminescence, dry powder, set 2, dose response (AID 624376); type: functional

COc1ccccc1N1CCN(C(=O)c2cc(=O)c3cc(C)ccc3o2)CC1
IC50 (Beta-galactosidase): > 80 µM (inactive)

CN1C(=O)/C(=C\c2cc(N=Nc3ccccc3)ccc2O)SC1=S
IC50 (Fatty acid synthase [1]): 33.7 µM (inactive) | IC50 (Fatty acid synthase [2]): 24.4 µM (inactive) | IC50 [3]: > 80 µM (inactive) | IC50 (Nonstructural protein 1): 4.51 µM (active)

CCNC(=O)CCC(=O)Nc1cc(Cl)ccc1C
AC50 [4]: 9 µM (active)

CCn1c(S)nnc1-c1csc2c1CCCC2
IC50 [5]: > 39.8 µM (not active) | IC50 [6]: > 122 µM (inactive) | IC50 [7]: 25.2 µM (not active)

O=C1c2cccnc2C(=O)N1Cc1ccc(S(=O)(=O)NCc2ccco2)s1
AC50 [8]: 98.4 µM (active)

CCc1cccc2c(C(=O)CN3C(=O)NC(C)(c4cccc5ccccc45)C3=O)c[nH]c12 (centres undefined)
EC50 [9]: > 30 µM (not active) | EC50 [10]: 1.75 µM (active) | IC50 [11]: 165 µM (inactive)

COc1cc(/C=C/C(=O)c2ccc(Cl)s2)cc(OC)c1O
IC50 [12]: 6.66 µM (active)

Cc1cccc(N2C(=O)c3cccc4c(N)ccc(c34)C2=O)c1
AC50 (ORF 73): 5.93 µM (active) | IC50 (Beta-lactamase [13]): 10.1 µM (inactive) | IC50 (Beta-lactamase [14]): 21.4 µM (inactive) | AC50 [15]: 1.79 µM (active) | AC50 (Keap1/Nrf2): 1.82 µM (active)

Cc1ccc(C)c(S(=O)(=O)N2CCC(c3nc(O)c4nnn(Cc5ccc6c(c5)OCCO6)c4n3)CC2)c1
IC50 [16]: > 69.5 µM (inactive) | CC50 [17]: > 40 µM (active) | IC50 [18]: > 69.5 µM (inactive)

CCOC(=O)c1ccccc1NC(=O)c1ccc2c(SCC(=O)O)c3c(nc2c1)CCCC3
IC50 [19]: 5.7 µM (active) | AC50 [20]: > 30 µM (inactive) | IC50 [21]: 25 µM (active)

O=C1CC[C@@H]2C[C@@]3(C[C@@H]4CCN1[C@H]24)Nc1cc([N+](=O)[O-])ccc1N=C3NCc1ccccc1
IC50 [22]: 9.31 µM (active) | IC50 [23]: 18.3 µM (active)

CN(C)C1(CNC(=O)C2CCN(S(=O)(=O)c3ccccc3C(F)(F)F)CC2)CCCCC1
AC50 (Vero): 36.2 µM (active)

CN1C(=O)c2cc(NC(=O)c3cccs3)ccc2OC[C@H]2O[C@H](CC(=O)NCCN3CCCCC3)CC[C@@H]21
AC50 [24]: 43.3 µM (active)

CCC(=O)N(C)C[C@H]1Oc2cc(-c3ccccc3)ccc2S(=O)(=O)N([C@H](C)CO)C[C@H]1C
AC50 (HeLa): 4.07 µM (active)

O=C(C=Cc1ccc(OCc2ccccc2)cc1)c1c(F)cccc1F
EC50 [25]: > 91.2 µM (inactive) | EC50 [26]: > 91.2 µM (inactive)

C[C@@H]1CCCCO[C@@H](CN(C)S(=O)(=O)c2ccccc2)[C@H](C)CN([C@H](C)CO)C(=O)c2cc(NC(=O)Nc3ccc(C(F)(F)F)cc3)ccc2O1
AC50 (Paired box protein Pax-8): 3.44 µM (active) | AC50 [27]: 54.7 µM (active) | AC50 [28]: 57.1 µM (active) | AC50 [29]: 20.2 µM (active) | AC50 [30]: 28.4 µM (active)

CC(C)[C@H](NC(=O)c1ccc(Cl)cc1Cl)C(=O)N1CCC[C@H]1C(=O)NCCc1ccccc1Cl
IC50 [31]: 3.47 µM (active) | EC50 [32]: 1.19 µM (active) | IC50 (cells [33]): > 29.9 µM (inactive) | EC50 (cells [34]): > 29.9 µM (inactive)

CCOC(=O)[C@]12CCC=C1N(Cc1ccccc1)C(=O)[C@H](CC(=O)N1CCCC1)C2
AC50 (A549): 25.3 µM (active)

COc1ccc(CNC(=O)c2cc3c(c(-c4cccc(-c5ccc(C#N)cc5)c4)n2)[C@@H](CCO)N([S@+]([O-])C(C)(C)C)C3)cc1
AbsAC35 [35]: 108.86 µM | AbsAC35 [36]: 56.25 µM
